Results: article PMC11865982, “Structure–Activity Relationships and Biological Insights into PSMA-617 and Its Derivatives with Modified Lipophilic Linker Regions” (ACS Omega, 2025)

How the values were obtained:
[1] = n-Octanol/PBS distribution coefficient; type: physicochemical; settings: n-octanol/PBS pH 7.4
[2] = system: PC3-PIP cells; test: Cellular internalization assay; type: cell-based, human; settings: 30 nM radioligand, 45 min 37 °C, average ± SD (n = 3)
Method: To further characterize P17 and P18, internalization assays were conducted to determine whether the structural modifications of the linker have an impact on the uptake of the inhibitor–enzyme complex into the cell, which is critical for efficient retention in vivo.
(§1) Cell culture media and supplements were purchased from PAN Biotech if not stated otherwise. In vitro assays were performed using the sublines of the androgen-independent PC3 human PCa cell line, PSMA-positive (PSMA+) PC3-PIP and PSMA-negative (PSMA−) PC3-flu cells, purchased from Johns Hopkins University (Baltimore, […], USA). Both cell lines were housed in a humidified atmosphere of 5% CO2 at 37 °C and cultured in RPMI-1640 medium supplemented with 10% fetal calf serum (FCS), 1% L-glutamine (L-Gln), and puromycin (2 μg/mL). In addition, cell-binding affinity assays were also performed on PSMA + LNCaP (ATCC CRL-1740) and C4-2 (ATCC CRL-3314) cell lines. LNCaP was derived from a human lymph node metastatic lesion of PCa while C4-2 was isolated from an LNCaP-based tumor xenograft of an androgen-depleted mouse. Both cell lines were cultured as described above but in the absence of puromycin. Routine cell culture was performed twice a week at RT using phosphate-buffered saline (PBS, pH 7.4) for washing and 0.05% trypsin for cell detachment.
Cells (10^5 cells/well) were seeded in poly-L-lysine (PLL)-coated plates 24 h before the experiment. […] Another set of cells was treated analogically while the PSMA-inhibitor 2-(phosphonomethyl)pentane-1,5-dioic acid (2-PMPA; 100 mM, […]) was added in order to subtract the nonspecific binding. The respective radioligand was removed and cells were washed three times with 1 mL ice-cold PBS and the surface-bound radioactivity detached by incubating the cells twice with 500 μL glycine buffer (50 mM, pH 2.8) for 5 min. After washing the cells once with 1 mL ice-cold PBS, the internalized fraction was determined by subsequent cells lysis with 500 μL NaOH (0.3 M, pH 14). […] Three independent assays were performed.

[3] = linker amino acid building block; source not stated; cited from earlier work
[4] = molecular target: T1, recombinant human PSMA (Homo sapiens, UniProt Q04609); test: HPLC-based PSMA enzyme inhibition assay with fluorescein-γ-Glu-Glu substrate; type: biochemical; settings: 20 pM recombinant human PSMA, 100 nM substrate, 37 °C; average ± SD (n = 3)
T1 construct: extracellular part of human PSMA (amino acids 44–750); made in house; host or cells: Drosophila Schneider's S2 cells (secreted into conditioned medium)
Method: The potency of the studied inhibitors against recombinant human PSMA was determined in vitro using an HPLC-based assay with fluorescein−γ-Glu–Glu as the substrate.[11]
Expression and purification of the extracellular part of human PSMA (amino acids 44–750) were performed essentially as described previously.[27] Briefly, the N-terminally tagged PSMA fusion was overexpressed in Schneider’s S2 cells and the conditioned medium concentrated and dialyzed by tangential flow filtration (Millipore, Mosheim, France).
The inhibitory potency was determined using a fluorescence-based assay described previously.[11] Briefly, 20 pM recombinant human PSMA was preincubated with a 3-fold dilution series of inhibitors in 50 mM Tris.HCl, 150 mM NaCl, and 0.001% C12 E8 for 10 min at 37 °C. The reaction was initiated by the addition of 100 nM substrate in a total volume 50 μL. Following 15 min incubation at 37 °C, the reaction was stopped by the addition of 50 μL of 0.1% TFA in 5% ACN. Reaction mixtures were analyzed by RP-HPLC (Shimadzu, HPLC Prominence system) equipped with a Kinetex 2.6 μm XB-C18 100 Å column and a fluorescence detector (λEX/λEM = 492/516). HPLC separation was performed using a linear solvent gradient over 11 min from 20 to 50% of eluent B (0.1% (v/v) TFA in ACN) at a flow rate of 0.6 mL/min. The mobile phase A was 0.1% (v/v) TFA in water. The noninhibited reaction was assigned 100% and the reaction without enzyme present was defined as 0%. Data were fitted using a nonlinear regression algorithm (GraphPad Prism Software, version 8) to calculate IC50 values from the inhibition curves. Three independent assays were performed for each compound.

[5] = molecular target: T2, PSMA-overexpressing PC-3 PIP cell line (Homo sapiens, UniProt Q04609); test: Competitive cell-binding affinity assay against [177Lu]Lu-PSMA-617, PC3-PIP; settings: competition with 0.75 nM [177Lu]Lu-PSMA-617, 45 min RT; average ± SD (n = 3)
T2 construct: host or cells: PC3-PIP (subline of the human PC3 prostate cancer line)
Method: (§2) To validate the IC50 values determined by the in vitro enzymatic assay, the PSMA-expressing cell line LNCaP, its daughter cell line C4-2, and the PSMA-overexpressing cell line PC-3 PIP were utilized to compare the cell-binding affinities of P17 and P18 to PSMA-617. The IC50 values of P17 and P18 were assessed by competitive binding against [^177Lu]Lu-PSMA-617. […] For the transfected cell line PC-3 PIP, the IC50 values for all three compounds were determined to be approximately 10-fold higher.
as §1
(§3) The binding affinities of PSMA-617, P17, and P18 were determined using a competitive assay with [^177Lu]Lu-PSMA-617. All three compounds were incubated at 12 different concentrations (0, 0.5, 1, 2.5, 5, 10, 25, 50, 100, 500, 1,000, and 5000 nM) with 0.75 nM [^177Lu]Lu-PSMA-617 on either PSMA + cell lines PC3-PIP, LNCaP, or C4-2 or the PSMA– cell line PC3-flu plated at a concentration of 10^6 cells/well. After 45 min incubation at RT, the radioligand was removed and cells washed twice with 100 μL and once with 200 μL ice-cold PBS. […]

[6] = molecular target: T3, PSMA-positive C4-2 cell line (Homo sapiens, UniProt Q04609); test: Competitive cell-binding affinity assay against [177Lu]Lu-PSMA-617, C4-2; settings: competition with 0.75 nM [177Lu]Lu-PSMA-617, 45 min RT; average ± SD (n = 3)
T3 construct: native LNCaP and LNCaP-derived C4-2 cell lines; host or cells: C4-2
Method: as §2, §1, §3

[7] = molecular target: T4, PSMA-positive LNCaP cell line (Homo sapiens, UniProt Q04609); test: Competitive cell-binding affinity assay against [177Lu]Lu-PSMA-617, LNCaP; settings: competition with 0.75 nM [177Lu]Lu-PSMA-617, 45 min RT; average ± SD (n = 3)
T4 construct: native LNCaP and LNCaP-derived C4-2 cell lines; host or cells: LNCaP
Method: as §2, §1, §3

[8] = Stability in DMSO solution by 1H NMR; type: physicochemical; settings: several days
Method: Characterization of the compounds was conducted extensively by one-dimensional (1D) ^1H, ^13C, and ^15N NMR (Figures S10–S15) and two-dimensional (2D) spectra, viz. COSY, HSQC, and HMBC (Figures S16–S21). Previous assignments of analogous compounds[5] were also used to provide unequivocal assignment of the ^1H, ^13C, and ^15N signals except for the DOTA macrocyclic ring assignments which could not be effected with certitude due to dynamic effects causing severe line broadening and thereby precluding correlations in the 2D spectra pertinent to the DOTA ring. The dynamic effects arising from the slow motional averaging of the DOTA ring on the NMR time scale leading to severe broadening of the signals of the DOTA ring were alleviated for the ^13C signals by the acquisition of spectra at lower field. Indeed, not all of the signals of the DOTA ring could be observed in the case of ^15N, unequivocally assigned in the case of ^13C, or uniquely discerned in the case of ^1H. However, all other signals though were able to be fully assigned and the spectra were otherwise fully consistent with the proposed structures and for both P17 and P18 the assigned structures were confirmed in terms of proton count, carbon count, and carbon multiplicities. […]

T1 sequence (Q04609 44-750): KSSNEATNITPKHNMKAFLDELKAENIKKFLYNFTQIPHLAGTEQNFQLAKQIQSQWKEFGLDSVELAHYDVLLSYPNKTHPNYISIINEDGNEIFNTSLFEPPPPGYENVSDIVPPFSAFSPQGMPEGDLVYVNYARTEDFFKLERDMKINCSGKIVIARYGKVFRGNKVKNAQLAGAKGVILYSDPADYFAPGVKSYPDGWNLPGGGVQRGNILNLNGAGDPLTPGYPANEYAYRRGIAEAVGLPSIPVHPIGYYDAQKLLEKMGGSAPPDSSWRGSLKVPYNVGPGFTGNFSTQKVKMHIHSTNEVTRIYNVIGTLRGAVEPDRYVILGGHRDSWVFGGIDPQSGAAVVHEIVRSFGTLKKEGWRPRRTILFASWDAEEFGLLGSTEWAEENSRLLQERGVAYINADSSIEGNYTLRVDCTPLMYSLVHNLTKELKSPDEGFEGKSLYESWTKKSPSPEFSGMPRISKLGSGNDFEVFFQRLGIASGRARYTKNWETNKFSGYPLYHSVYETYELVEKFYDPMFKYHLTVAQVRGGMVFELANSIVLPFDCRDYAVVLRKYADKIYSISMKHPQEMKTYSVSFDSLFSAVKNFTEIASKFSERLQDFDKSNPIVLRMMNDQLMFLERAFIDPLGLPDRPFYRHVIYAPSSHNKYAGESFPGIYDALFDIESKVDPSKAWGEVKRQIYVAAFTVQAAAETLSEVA
T2 sequence (Q04609 whole entry): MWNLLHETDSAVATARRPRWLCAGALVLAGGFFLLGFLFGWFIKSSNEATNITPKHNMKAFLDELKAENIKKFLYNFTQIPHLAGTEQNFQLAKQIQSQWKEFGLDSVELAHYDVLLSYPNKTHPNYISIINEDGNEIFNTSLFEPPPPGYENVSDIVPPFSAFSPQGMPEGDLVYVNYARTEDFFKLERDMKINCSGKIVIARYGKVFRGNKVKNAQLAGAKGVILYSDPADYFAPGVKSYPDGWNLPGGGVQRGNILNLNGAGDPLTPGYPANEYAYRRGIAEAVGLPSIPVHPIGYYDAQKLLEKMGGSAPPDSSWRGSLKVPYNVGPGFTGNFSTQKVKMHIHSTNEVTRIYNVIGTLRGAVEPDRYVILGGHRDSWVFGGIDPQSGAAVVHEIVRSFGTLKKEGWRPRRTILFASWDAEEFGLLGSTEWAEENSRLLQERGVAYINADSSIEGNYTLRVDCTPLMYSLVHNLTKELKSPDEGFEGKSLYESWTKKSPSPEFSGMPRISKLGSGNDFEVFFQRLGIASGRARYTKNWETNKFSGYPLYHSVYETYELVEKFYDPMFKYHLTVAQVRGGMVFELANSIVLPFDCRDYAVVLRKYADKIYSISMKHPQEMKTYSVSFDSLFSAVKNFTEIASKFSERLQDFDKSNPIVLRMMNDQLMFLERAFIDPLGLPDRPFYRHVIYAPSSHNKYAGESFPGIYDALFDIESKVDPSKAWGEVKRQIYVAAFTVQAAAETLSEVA
T4 sequence (Q04609 whole entry): as above
T3 sequence (Q04609 whole entry): as above

SMILES	log D [1]	internalized [2] [% AA]	total binding [2] [% AA]	IC50 [4] [nM]	IC50 [5] [nM]	IC50 [6] [nM]	IC50 [7] [nM]	other results
O=C([O-])CN1CCN(CC(=O)[O-])CCN(CC(=O)NC[C@H]2CC[C@H](C(=O)N[C@@H](C/C=C/c3ccccc3)C(=O)NCCCC[C@H](NC(=O)N[C@@H](CCC(=O)O)C(=O)O)C(=O)O)CC2)CCN(CC(=O)[O-])CC1.[177Lu+3] [[^177Lu]Lu-P17]	−3.36 ± 0.05	8.5 ± 2.4	20.1 ± 9.8					
N[C@@H](Cc1ccc2ccccc2c1)C(=O)O [2-naphthyl-L-Ala]								log Kow [3]: > 3
O=C(O)CC[C@H](NC(=O)N[C@@H](CCCCNC(=O)[C@H](Cc1ccc2ccccc2c1)NC(=O)[C@H]1CC[C@H](CNC(=O)CN2CCN(CC(=O)O)CCN(CC(=O)O)CCN(CC(=O)O)CC2)CC1)C(=O)O)C(=O)O [PSMA-617]				0.05 ± 0.03	71 ± 8	4.9 ± 0.9	6.9 ± 2.2	
N[C@@H](CC=Cc1ccccc1)C(=O)O [3-styryl-L-Ala]								log Kow [3]: < 3
O=C(O)CC[C@H](NC(=O)N[C@@H](CCCCNC(=O)[C@H](C/C=C/c1ccccc1)NC(=O)[C@H]1CC[C@H](CNC(=O)CN2CCN(CC(=O)O)CCN(CC(=O)O)CCN(CC(=O)O)CC2)CC1)C(=O)O)C(=O)O [P17]				0.3 ± 0.04	150 ± 30	15.5 ± 2.5	12.9 ± 0.4	stability in DMSO solution [8]: no sign of decomposition after several days
O=C(O)CC[C@H](NC(=O)N[C@@H](CCCCNC(=O)[C@H](C/C=C/c1ccccc1)NC(=O)c1ccc(CNC(=O)CN2CCN(CC(=O)O)CCN(CC(=O)O)CCN(CC(=O)O)CC2)cc1)C(=O)O)C(=O)O [P18]				0.45 ± 0.09	111 ± 9	9.5 ± 3	11.2 ± 4.8	stability in DMSO solution [8]: no sign of decomposition after several days
O=C([O-])CN1CCN(CC(=O)[O-])CCN(CC(=O)NC[C@H]2CC[C@H](C(=O)N[C@@H](Cc3ccc4ccccc4c3)C(=O)NCCCC[C@H](NC(=O)N[C@@H](CCC(=O)O)C(=O)O)C(=O)O)CC2)CCN(CC(=O)[O-])CC1.[177Lu+3] [[^177Lu]Lu-PSMA-617, reference compound]	−3.27 ± 0.05	8.2 ± 2.4	26.8 ± 14.2					
O=C([O-])CN1CCN(CC(=O)[O-])CCN(CC(=O)NCc2ccc(C(=O)N[C@@H](C/C=C/c3ccccc3)C(=O)NCCCC[C@H](NC(=O)N[C@@H](CCC(=O)O)C(=O)O)C(=O)O)cc2)CCN(CC(=O)[O-])CC1.[177Lu+3] [[^177Lu]Lu-P18]	−3.35 ± 0.04	8.7 ± 2.9	33.7 ± 12.8					
